{
  "source": "patent US20070116745A1",
  "about": "“Spermicidal preparations and uses thereof” (CONVE LTD., priority 2004, published 2007)",
  "key": {"sperm": {"system": "sperm", "assay": "Modified Sander-Cramer assay (complete sperm immobilization)", "format": "cell-based", "conditions": "solvent 0.9% NaCl pH 5, 30-second coincubation, n=6", "method": "The above formulations were used in a series of (i) Sander-Cramer assays (assessment of complete sperm immobilization during a 30-second, compound-sperm coincubation); and (ii) cervical mucous (CM) penetration assays (compound is pre-incubated with a CM microcolumn for 30 minutes, after which sperm are introduced into the system; sperm migration through the mucous is compared to that of control)."}, "[1]": {"assay": "Solubility in assay solvent (Table 1)", "format": "physicochemical", "conditions": "in 0.9% NaCl pH 5 at initial conc"}},
  "data": [
    {"substance": "nonoxynol-9", "values": [
      {"measurement": "HIGHEST SPERMICIDAL DILUTION (1/X)", "setting": "sperm; initial conc 1 mg/ml", "result": "8.0 ± 0.0 1/X"},
      {"measurement": "M.E.C. (Minimum Effective Concentration)", "setting": "sperm", "result": "0.125 ± 0.000", "unit": "mg/mL"},
      {"measurement": "SOLUBILITY", "setting": "[1]", "result": "OK - clear"}
    ]}
  ]
}
